Measured values taken from the supplement of paper PMC8617591.

Columns and labels:
[1] = tested on: Mycobacterium tuberculosis Erdman (autoluminescent); assay: GRinf, maximum normalised growth rate inhibition (unitless (-1 to 1)); higher = less effect (negative = killing)
Method: (§1)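 DiaMOND equipotent two-drug combination dose responses against autoluminescent M. tuberculosis Erdman in 8 in vitro models. Read-out is OD600, or luminescence for the intracellular and dormancy models, normalised to untreated wells. Hill-fit Einf, AUC25 and GRinf are potency metrics; FIC50 and FIC90 are Loewe-additivity fractional inhibitory concentrations, given as log2 (negative = synergy). Replicates are averaged.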

[2] = tested on: Mycobacterium tuberculosis Erdman (autoluminescent); assay: Einf, fitted maximum growth inhibition of combination (fraction); higher = stronger maximal inhibition
Method: as §1

[3] = tested on: Mycobacterium tuberculosis Erdman (autoluminescent); assay: FIC90 (Loewe) at 90% inhibition (log2); higher = more antagonistic
Method: as §1

[4] = tested on: Mycobacterium tuberculosis Erdman (autoluminescent); assay: AUC25, normalised area under dose response up to IC25 (fraction (0-1)); higher = more potent at low dose
Method: as §1

[5] = tested on: Mycobacterium tuberculosis Erdman (autoluminescent); assay: FIC50 (Loewe) at 50% inhibition (log2); higher = more antagonistic
Method: as §1

COc1nc2ccc(Br)cc2cc1[C@@H](c1ccccc1)[C@@](O)(CCN(C)C)c1cccc2ccccc12 [bedaquiline] + CC(=O)NC[C@H]1CN(c2ccc(N3CCOCC3)c(F)c2)C(=O)O1 [linezolid]
Details | AUC25, [4] | Einf, [2] | FIC50, [5] | FIC90, [3] | GRinf, [1]
in vitro model: acidic pH 5.7, time point: constant (~7 days, model-specific) | 0.0967 | 0.859 | -0.0767 | – | -0.481
in vitro model: acidic pH 5.7, time point: terminal (~4-5 doublings, model-specific) | 0.0907 | 0.973 | 0.322 | 0.271 | -0.338
in vitro model: intracellular J774, time point: constant = terminal | – | 0.779 | – | – | 0.0692

Details | AUC25, [4] | Einf, [2] | FIC50, [5] | FIC90, [3] | GRinf, [1]
in vitro model: butyrate, time point: constant (~7 days, model-specific) | 0.0836 | 0.935 | 0.413 | -0.0357 | -0.0894
in vitro model: butyrate, time point: terminal (~4-5 doublings, model-specific) | 0.0548 | 0.955 | 0.268 | 0.0422 | -0.102
in vitro model: cholesterol 0.05 mM, time point: constant (~7 days, model-specific) | 0.153 | 0.803 | 0.123 | – | -0.345
in vitro model: cholesterol 0.05 mM, time point: terminal (~4-5 doublings, model-specific) | 0.147 | 0.945 | -0.0301 | 1.01 | -0.326
in vitro model: cholesterol-high 0.2 mM, time point: constant (~7 days, model-specific) | 0.12 | 0.99 | -0.127 | 0.76 | -0.87
in vitro model: cholesterol-high 0.2 mM, time point: terminal (~4-5 doublings, model-specific) | 0.121 | 1 | -0.334 | 0.414 | -0.851
in vitro model: dormancy (butyrate + nitrate, low O2), time point: constant (~7 days, model-specific) | 0.0774 | 0.933 | 0.344 | 0.554 | 0.113
in vitro model: dormancy (butyrate + nitrate, low O2), time point: terminal (~4-5 doublings, model-specific) | 0.0484 | 0.984 | 0.546 | 0.263 | -0.0845
in vitro model: standard 7H9 glycerol, time point: constant = terminal | 0.0721 | 0.961 | 0.142 | 0.0991 | -0.106
in vitro model: valerate, time point: constant (~7 days, model-specific) | 0.104 | 0.901 | 1.02 | 1.36 | -0.0681
in vitro model: valerate, time point: terminal (~4-5 doublings, model-specific) | 0.067 | 0.947 | 0.743 | 0.916 | -0.0615

COc1nc2ccc(Br)cc2cc1[C@@H](c1ccccc1)[C@@](O)(CCN(C)C)c1cccc2ccccc12 [bedaquiline] + CC(C)/N=c1\cc2n(-c3ccc(Cl)cc3)c3ccccc3nc-2cc1Nc1ccc(Cl)cc1 [clofazimine]
Details | AUC25, [4] | Einf, [2] | FIC50, [5] | FIC90, [3] | GRinf, [1]
in vitro model: acidic pH 5.7, time point: constant (~7 days, model-specific) | 0.105 | 0.853 | 0.214 | – | -0.265
in vitro model: acidic pH 5.7, time point: terminal (~4-5 doublings, model-specific) | 0.102 | 0.986 | -0.0261 | 0.282 | -0.322
in vitro model: intracellular J774, time point: constant = terminal | – | 0.986 | – | -0.499 | -0.483

Details | AUC25, [4] | Einf, [2] | FIC50, [5] | FIC90, [3] | GRinf, [1]
in vitro model: butyrate, time point: constant (~7 days, model-specific) | 0.0673 | 0.946 | -0.498 | -0.794 | -0.0975
in vitro model: butyrate, time point: terminal (~4-5 doublings, model-specific) | 0.0515 | 0.979 | -0.353 | -0.858 | -0.101
in vitro model: cholesterol 0.05 mM, time point: constant (~7 days, model-specific) | 0.0912 | 0.741 | -0.628 | – | -0.147
in vitro model: cholesterol 0.05 mM, time point: terminal (~4-5 doublings, model-specific) | 0.0989 | 0.945 | 0.39 | 0.028 | -0.224
in vitro model: cholesterol-high 0.2 mM, time point: constant (~7 days, model-specific) | 0.0661 | 0.946 | -0.437 | -0.58 | -0.413
in vitro model: cholesterol-high 0.2 mM, time point: terminal (~4-5 doublings, model-specific) | 0.0725 | 0.997 | 0.0406 | -0.388 | -0.62
in vitro model: dormancy (butyrate + nitrate, low O2), time point: constant (~7 days, model-specific) | 0.0657 | 0.905 | -0.281 | -0.778 | 0.168
in vitro model: dormancy (butyrate + nitrate, low O2), time point: terminal (~4-5 doublings, model-specific) | 0.067 | 0.988 | -0.558 | -0.863 | -0.267
in vitro model: standard 7H9 glycerol, time point: constant = terminal | 0.0822 | 0.974 | -0.132 | -0.648 | -0.119
in vitro model: valerate, time point: constant (~7 days, model-specific) | 0.112 | 0.94 | -0.453 | -1.82 | -0.151
in vitro model: valerate, time point: terminal (~4-5 doublings, model-specific) | 0.0649 | 0.956 | 0.0093 | -0.0427 | -0.0795

COc1nc2ccc(Br)cc2cc1[C@@H](c1ccccc1)[C@@](O)(CCN(C)C)c1cccc2ccccc12 [bedaquiline] + CC[C@@H](CO)NCCN[C@@H](CC)CO [ethambutol]
Details | AUC25, [4] | Einf, [2] | FIC50, [5] | FIC90, [3] | GRinf, [1]
in vitro model: acidic pH 5.7, time point: constant (~7 days, model-specific) | 0.133 | 0.831 | 0.111 | – | -0.514
in vitro model: acidic pH 5.7, time point: terminal (~4-5 doublings, model-specific) | 0.0618 | 0.961 | 0.595 | -0.0708 | -0.42
in vitro model: intracellular J774, time point: constant = terminal | – | 1 | – | -0.00203 | -0.728

Details | AUC25, [4] | Einf, [2] | FIC50, [5] | FIC90, [3] | GRinf, [1]
in vitro model: butyrate, time point: constant (~7 days, model-specific) | 0.0683 | 0.948 | 0.277 | – | -0.0865
in vitro model: butyrate, time point: terminal (~4-5 doublings, model-specific) | 0.0577 | 0.978 | 0.142 | -0.418 | -0.0993
in vitro model: cholesterol 0.05 mM, time point: constant (~7 days, model-specific) | 0.0646 | 0.736 | 0.507 | – | -0.236
in vitro model: cholesterol 0.05 mM, time point: terminal (~4-5 doublings, model-specific) | 0.0688 | 0.956 | 0.89 | 0.731 | -0.404
in vitro model: cholesterol-high 0.2 mM, time point: constant (~7 days, model-specific) | 0.026 | 0.994 | 0.819 | – | -0.858
in vitro model: cholesterol-high 0.2 mM, time point: terminal (~4-5 doublings, model-specific) | 0.0312 | 1 | 0.85 | 0.757 | -0.687
in vitro model: dormancy (butyrate + nitrate, low O2), time point: constant (~7 days, model-specific) | 0.139 | 0.866 | 1.04 | – | 0.338
in vitro model: dormancy (butyrate + nitrate, low O2), time point: terminal (~4-5 doublings, model-specific) | 0.131 | 0.995 | 0.336 | 1.24 | -0.154
in vitro model: standard 7H9 glycerol, time point: constant = terminal | 0.0591 | 0.949 | 0.176 | -0.108 | -0.0657
in vitro model: valerate, time point: constant (~7 days, model-specific) | 0.108 | 0.953 | 0.0258 | – | -0.286
in vitro model: valerate, time point: terminal (~4-5 doublings, model-specific) | 0.0819 | 0.979 | 0.247 | -0.129 | -0.0998
